Earlier results in patent US20030108955A1, “Dioxin derivatives and method of measurement therewith” (priority 2000, published 2003).

Settings: general knowledge

Question: For `O=C(O)CCCC[C@@H]1SC[C@@H]2NC(=O)N[C@@H]21` [biotin], which water solubility is on record?
Answer: insoluble to water
